Source: US5521293A (Lever Brothers Company, Division of Conopco, Inc., priority 1995, dated 1996)

Key:
Assay type in all cases: physicochemical
[1] = Micellar shape and structure (packing parameter)
Excerpt: A theory of micellar structure, based upon the geometry of various micelle shapes and the space occupied by the surfactant has been disclosed by J. N. Israelachvili, D. J. Mitchell and B. W. Ninham in the J. Chem. Soc. Faraday Trans. 2, 1525, 72, (1976) which is given as the packing parameter (p).
VT =V(CH3) +(nc -1)V(CH2) and represents the volume occupied by the hydrophobic groups in the micellar core at a given temperature.
1c =1.50+1.26 nc Å and represents the length of the hydrophobic group in the core.
am =area per molecule or the cross-sectional area occupied by the hydrophilic group at the interface.
nc =total number of carbons in the alkyl chain.
Values obtained from the packing parameter (p) represent the following structures:
The packing parameter (p) of C8 /C10 oxypropyl D-Gluconamide was determined as follows: […]

[2] = Krafft point of aqueous dispersion of aldonamide; settings: 0.1% in water by weight
[3] = Critical micelle concentration (Wilhelmy plate method); settings: 60° C.
Experimental: The critical micelle concentration (CMC) is defined as the concentration at which a surfactant forms micelles in aqueous solution. Micellization is the preferred interfacial phenomena, since certain surfactant benefits such as detergency (the solubilization of soils), foaming, wetting or emulsification depend on the formation of these aggregates in solution.
The CMC value of C8 /C10 oxypropyl D-gluconamide was determined by plotting surface tension as a function of log(concentration) and extrapolating linear points to obtain an intersection point. The concentration at this point was taken as the CMC. The technique used was the Wilhelmy plate method and the instrument used was a Lauda Auto-Tensiometer. While wishing not to be bound to theory, it is believed that surfactants with low CMC values form micelles more readily at lower concentrations than those with high CMC values.
The critical micelle concentration (CMC) value of C8 /C10 oxypropyl D-gluconamide (molecular weight=375.02 g/mole, 65.9% C8, 34.1% C10) was determined and is set forth below: […]

[4] = Surface tension at the water/air interface; settings: 60° C.
Experimental: An important characteristic feature that surfactants have is the tendency for them to absorb at the water/air interface in an oriented manner, thereby altering the interfacial free energy of that surface. The surface free energy per unit area or surface tension (γ), is a measure of this work and may be considered as the minimum amount of work required to bring sufficient surfactant molecules to the surface.
The surface tension (γ) value of C8 /C10 oxypropyl D-gluconamide was determined and is set forth below: […]

[5] = Area per molecule at the interface; settings: 60° C.
Excerpt: The area per molecule of a surfactant at the water/air interface provides information on the degree of packing and the orientation of the adsorbed surfactant molecule. While not wishing to be bound by theory, it is believed that surfactants that have small area per molecule values tend to pack more closely at the interface than those with large area per molecule values. From the surface excess concentration at surface saturation (Γmax), the area per molecule (am) of C8 /C10 oxypropyl D-gluconamide was determined and is given by:
am =1×10^16 /Nav Γmax
Γmax =-1/2·303RT(∂γ/∂log[Conc])T
NAV =6.0221×10^23 per gram mole (Avogadro's Number)
The area per molecule (am) of several surfactants were-determined and are set forth below: […]

[6] = Efficiency in surface tension reduction (pC20)
Excerpt: Since surface tension reduction depends on the replacement of water molecules at the interface by surfactant molecules, the efficiency of a surfactant in reducing interfacial tension should reflect the concentration of surfactant at the interface relative to that in bulk liquid phase. A suitable measure of efficiency with which a surfactant performs this function can be described as pC20. This is defined as the negative logarithm of the bulk phase surfactant concentration necessary to reduce the surface tension of water by 20 dyn/cm and is given as:
In general, pC20 values are usually close to the minimum concentration needed to saturate the interface with surfactant molecules.

[7] = Effectiveness of adsorption at the interface (surface excess concentration at surface saturation); settings: for surface excess concentration at surface saturation (Γmax): 60° C. (T=333.15K)
Excerpt: The surface excess concentration at surface saturation (Γmax) is defined as a measure of the effectiveness of surfactant adsorption at the water/air interface and represents the maximum value to which adsorption can be obtained. Effectiveness of adsorption is related to the interfacial area occupied by the surfactant molecule. The smaller the effective cross-sectional area of a surfactant at the interface, the greater its effectiveness of adsorption. The effectiveness of adsorption is an important factor in determining surfactant properties such as detergency, foaming, wetting or emulsification. While not wishing to be bound by theory, it is believed that surfactants that absorb effectively at the interface tend have tightly packed coherent interfacial films and often provide better surfactant benefits than those with loosely packed noncoherent films. The effectiveness of adsorption of C8 /C10 oxypropyl D-gluconarnide was determined using the Gibbs equation given as:
Γmax =-1/2.303RT(∂γ/∂log[Conc])T
(∂γ/∂log[Conc)T =-24.574971 ergs/cm^2 (which is equivalent to the
slope of a plot of γ versus log[Conc]) R=8.3 14×10^7 ergs/mol K (Gas Constant)
The surface excess concentration at surface saturation (Γmax) of various surfactants were determined and are set forth below: […]

[8] = Effectiveness in reducing surface tension (surface pressure at the CMC); settings: 60° C.
Excerpt: Effectiveness of a surfactant in reducing surface tension is defined as the maximum reduction in surface tension that can be obtained regardless of the bulk phase surfactant concentration.
As mentioned before, surface tension reduction depends on the replacement of water molecules at the interface by surfactant molecules, therefore the effectiveness of a surfactant in reducing interfacial surface tension should reflect the saturated concentration of surfactant at the interface relative to that in bulk liquid phase. During this process the surface tension of water steadily decreases as bulk phase surfactant concentration increases. This will continue until the concentration reaches the critical micelle concentration (CMC), above which the surface tension remains nearly unchanged and the interface is saturated with surfactant. The surface tension at the CMC is therefore very close to the minimum interfacial tension or maximum surface pressure that the system can achieve. The surface pressure at this point, cmc, is a suitable measure of the effectiveness of a surfactant in reducing surface tension and is given as:
cmc =20+2.3 nRT(Γmax) log[CMC/C20 ]
n=1 which represents the number of ions whose surface concentration changes with the change in liquid phase surfactant concentration.
R=8.314×107 ergs/mol K (Gas Constant)
Γmax =-1/2·303RT(∂γ/∂log [Conc])T=3.85×10^-10 mole/cm^2
CMC/C20 =is the ratio of the critical micelle concentration to the bulk phase surfactant concentration necessary to reduce the surface tension of water by 20 dyn/cm.
The effectiveness of various surfactants in reducing surface tension ( cmc) were determined and are set forth below: […]

C8 /C10 oxypropyl D-gluconamide [Q]
VT, volume occupied by the hydrophobic groups in the micellar core ([1]; T=333.15° K.): 379.7 Å^3 | la, length of the hydrophobic group in the core ([1]; one oxygen atom taken as one methylene group): 17.5 Å | Krafft Point (0.1%) [2]: 48 °C | CMC / micelle formation (in words) [3]: forms micelles at a surprising low critical micelle concentration | surface tension reduction (in words) [4]: significant reduction in water surface tension | area per molecule (am) [5]: 43.1 Å^2 | pC20 (in words) [6]: high pC20 value | surface excess concentration / cross sectional area (in words) [7]: small cross sectional area | surface excess concentration at surface saturation (Γmax) ([7]; listed as C8 /C10 Oxypropyl D-Gluconamide): 3.85 × 10^-10 mole/cm^2 | surface excess concentration at surface saturation (Γmax) ([7]; listed as C8 /C10 oxypropyl D-gluconamide): 3.85×10^-10 mole/cm^2 | surface pressure at the CMC (cmc) [8]: 38.5 dyn/cm
